{"source": "ChEMBL document CHEMBL1914376", "about": "“Synthesis and in vitro evaluation of 7-methoxy-N-(pent-4-enyl)-1,2,3,4-tetrahydroacridin-9-amine-new tacrine derivate with cholinergic properties” (Bioorg Med Chem Lett, 2011)", "key": {"[1]": {"target": "T1, Acetylcholinesterase (Homo sapiens, UniProt P22303)", "T1 sequence (P22303 whole entry)": "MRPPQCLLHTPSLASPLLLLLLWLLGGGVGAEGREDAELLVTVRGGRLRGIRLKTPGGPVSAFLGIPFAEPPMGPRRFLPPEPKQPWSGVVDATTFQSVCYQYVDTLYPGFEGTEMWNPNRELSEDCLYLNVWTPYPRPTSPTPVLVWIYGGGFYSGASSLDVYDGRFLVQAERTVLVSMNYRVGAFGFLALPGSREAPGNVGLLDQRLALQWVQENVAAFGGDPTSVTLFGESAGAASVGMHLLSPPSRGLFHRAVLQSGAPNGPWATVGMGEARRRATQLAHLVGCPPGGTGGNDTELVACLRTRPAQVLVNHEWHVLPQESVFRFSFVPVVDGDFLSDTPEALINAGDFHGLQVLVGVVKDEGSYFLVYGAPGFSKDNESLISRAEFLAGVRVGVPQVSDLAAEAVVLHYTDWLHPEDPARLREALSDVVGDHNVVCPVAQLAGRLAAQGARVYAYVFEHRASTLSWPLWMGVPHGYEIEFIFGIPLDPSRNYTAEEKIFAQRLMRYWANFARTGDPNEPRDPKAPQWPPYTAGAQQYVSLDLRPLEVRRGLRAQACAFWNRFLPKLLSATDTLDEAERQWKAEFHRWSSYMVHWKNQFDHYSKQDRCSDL", "description": "Inhibition of human recombinant AChE after 5 mins using spectrophotometer by Ellman's method"}, "[2]": {"target": "Cholinesterase (Homo sapiens, UniProt P06276)", "sequence (P06276 whole entry)": "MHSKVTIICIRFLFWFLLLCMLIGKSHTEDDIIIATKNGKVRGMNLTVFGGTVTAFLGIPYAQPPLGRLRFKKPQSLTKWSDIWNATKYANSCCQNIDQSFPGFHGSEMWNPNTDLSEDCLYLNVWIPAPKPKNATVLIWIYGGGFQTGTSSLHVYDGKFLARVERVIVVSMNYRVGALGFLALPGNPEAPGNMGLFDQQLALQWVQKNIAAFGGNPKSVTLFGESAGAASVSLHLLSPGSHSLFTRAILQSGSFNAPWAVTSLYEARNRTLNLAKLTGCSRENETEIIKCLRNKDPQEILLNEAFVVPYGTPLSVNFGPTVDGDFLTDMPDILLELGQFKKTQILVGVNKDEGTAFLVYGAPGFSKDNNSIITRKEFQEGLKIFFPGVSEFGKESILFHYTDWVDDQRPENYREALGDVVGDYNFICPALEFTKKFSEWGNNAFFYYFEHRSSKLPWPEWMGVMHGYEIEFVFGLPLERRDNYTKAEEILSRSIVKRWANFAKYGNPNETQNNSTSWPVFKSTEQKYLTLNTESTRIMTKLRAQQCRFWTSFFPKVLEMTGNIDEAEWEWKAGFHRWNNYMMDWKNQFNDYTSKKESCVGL", "description": "Inhibition of human plasmatic BChE after 5 mins using spectrophotometer by Ellman's method"}, "[3]": {"target": "T1, Acetylcholinesterase", "assay": "Ratio of Tacrine IC50 to compound IC50 for human recombinant AChE"}, "[4]": {"target": "T1, Acetylcholinesterase", "assay": "Ratio of 7-MEOTA IC50 to compound IC50 for human recombinant AChE"}}, "note": "pIC50: −log10 of the molar value."}
{"smiles": "COc1ccc2nc3c(c(N4CCCCCN(c5c6c(nc7ccc(OC)cc57)CCCC6)CCCCC4)c2c1)CCCC3", "values": [{"measurement": "pIC50", "setting": "[1]", "result": 5.34}, {"measurement": "pIC50", "setting": "[2]", "result": 3.18}]}
{"smiles": "C=CCCCNc1c2c(nc3ccc(OC)cc13)CCCC2", "values": [{"measurement": "Ratio IC50", "setting": "[3]", "result": 10}, {"measurement": "Ratio IC50", "setting": "[4]", "result": 5}, {"measurement": "pIC50", "setting": "[1]", "result": 5.66}, {"measurement": "pIC50", "setting": "[2]", "result": 5.96}]}
